Reference: PubChem BioAssay AID1963866 (Molecular Pharmacology Branch, DTP, NCI, 2024)
pIC50: −log10 of the molar value.

System: PDC KRAS tumor spheroids with HUVEC/MSC, viability
Test: Anticancer human tumor 349418-098-R-PDC patient-derived lung adenocarcinoma cell line growth inhibition [KRAS2]
Settings: for viability, T/C: stronger effect = lower value
Outline: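 Combination screen of spheroid viability in tumor-cell co-cultures with endothelial (HUVEC) and mesenchymal stem cell stroma. Each agent was tested in half-log dilutions, topping at clinical Cmax or at 10 microM without a known Cmax.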

[1] = curve of first compound, second compound 0.1 µM
[2] = curve of first compound, second compound 0.316 µM
[3] = curve of first compound, second compound 1 µM
[4] = curve of first compound, second compound 3.16 µM
[5] = second compound 0.1 µM, first compound 0.0316 µM
[6] = second compound 0.1 µM, first compound 0.1 µM
[7] = second compound 0.1 µM, first compound 0.316 µM
[8] = second compound 0.1 µM, first compound 1 µM
[9] = second compound 0.1 µM, first compound 3.16 µM
[10] = second compound 0.1 µM, first compound 10 µM
[11] = second compound 0.316 µM, first compound 0.0316 µM
[12] = second compound 0.316 µM, first compound 0.1 µM
[13] = second compound 0.316 µM, first compound 0.316 µM
[14] = second compound 0.316 µM, first compound 1 µM
[15] = second compound 0.316 µM, first compound 3.16 µM
[16] = second compound 0.316 µM, first compound 10 µM
[17] = second compound 1 µM, first compound 0.0316 µM
[18] = second compound 1 µM, first compound 0.1 µM
[19] = second compound 1 µM, first compound 0.316 µM
[20] = second compound 1 µM, first compound 1 µM
[21] = second compound 1 µM, first compound 3.16 µM
[22] = second compound 1 µM, first compound 10 µM
[23] = second compound 3.16 µM, first compound 0.0316 µM
[24] = second compound 3.16 µM, first compound 0.1 µM
[25] = second compound 3.16 µM, first compound 0.316 µM
[26] = second compound 3.16 µM, first compound 1 µM
[27] = second compound 3.16 µM, first compound 3.16 µM
[28] = second compound 3.16 µM, first compound 10 µM
[29] = curve of first compound, second compound 10 µM
[30] = second compound 0.1 µM, first compound 0.01 µM
[31] = second compound 0.316 µM, first compound 0.01 µM
[32] = second compound 1 µM, first compound 0.01 µM
[33] = second compound 3.16 µM, first compound 0.01 µM
[34] = second compound 10 µM, first compound 0.01 µM
[35] = second compound 10 µM, first compound 0.0316 µM
[36] = second compound 10 µM, first compound 0.1 µM
[37] = second compound 10 µM, first compound 0.316 µM
[38] = second compound 10 µM, first compound 1 µM
[39] = second compound 10 µM, first compound 3.16 µM
[40] = second compound 10 µM, first compound 10 µM
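Also: spheroids exposed to compounds for seven days before readout.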

Structure (SMILES): COc1cc(Nc2ncc3c(n2)-c2ccc(Cl)cc2C(c2c(F)cccc2OC)=NC3)ccc1C(=O)O + C=CC(=O)N1CCN(c2nc(OCC3CCCN3C)nc3c2CCN(c2cccc4cccc(C)c24)C3)CC1CC#N
- pIC50 (curve of first compound, second compound 0.0316 µM): 7.39
- pIC50 [1]: 7.26
- pIC50 [2]: > 7.50
- pIC50 [3]: > 7.50
- pIC50 [4]: > 7.50
- viability, T/C (second compound 0.0316 µM, first compound 0.0316 µM): 55.8%
- viability, T/C (second compound 0.0316 µM, first compound 0.1 µM): 29.1%
- viability, T/C (second compound 0.0316 µM, first compound 0.316 µM): 33.7%
- viability, T/C (second compound 0.0316 µM, first compound 1 µM): 28.3%
- viability, T/C (second compound 0.0316 µM, first compound 3.16 µM): 28.1%
- viability, T/C (second compound 0.0316 µM, first compound 10 µM): 21.2%
- viability, T/C [5]: 60.8%
- viability, T/C [6]: 36.3%
- viability, T/C [7]: 36.3%
- viability, T/C [8]: 26.1%
- viability, T/C [9]: 28.2%
- viability, T/C [10]: 25.4%
- viability, T/C [11]: 49.7%
- viability, T/C [12]: 20.5%
- viability, T/C [13]: 27.8%
- viability, T/C [14]: 31.9%
- viability, T/C [15]: 20.2%
- viability, T/C [16]: 19.4%
- viability, T/C [17]: 24%
- viability, T/C [18]: 24%
- viability, T/C [19]: 21.8%
- viability, T/C [20]: 19.7%
- viability, T/C [21]: 16.2%
- viability, T/C [22]: 17%
- viability, T/C [23]: 0.09%
- viability, T/C [24]: 0.09%
- viability, T/C [25]: 0.11%
- viability, T/C [26]: 0.08%
- viability, T/C [27]: 0.49%
- viability, T/C [28]: 0.12%

Structure (SMILES): CC(C)n1nc(-c2ccc3oc(N)nc3c2)c2c(N)ncnc21 + CC1OCC2(CCN(c3cnc(Sc4ccnc(N)c4Cl)c(N)n3)CC2)C1N
- pIC50 [1]: 8.98
- pIC50 [2]: 9.06
- pIC50 [3]: 9.03
- pIC50 [4]: 9.03
- pIC50 [29]: 9.02
- viability, T/C (second compound 0.1 µM, first compound 0.000316 µM): 88.6%
- viability, T/C (second compound 0.1 µM, first compound 0.001 µM): 51.3%
- viability, T/C (second compound 0.1 µM, first compound 0.00316 µM): 12.7%
- viability, T/C [30]: 7.28%
- viability, T/C [5]: 6.47%
- viability, T/C [6]: 6.12%
- viability, T/C (second compound 0.316 µM, first compound 0.000316 µM): 84.3%
- viability, T/C (second compound 0.316 µM, first compound 0.001 µM): 45.1%
- viability, T/C (second compound 0.316 µM, first compound 0.00316 µM): 13.2%
- viability, T/C [31]: 6.85%
- viability, T/C [11]: 5.49%
- viability, T/C [12]: 5.49%
- viability, T/C (second compound 1 µM, first compound 0.000316 µM): 87%
- viability, T/C (second compound 1 µM, first compound 0.001 µM): 47.4%
- viability, T/C (second compound 1 µM, first compound 0.00316 µM): 15.5%
- viability, T/C [32]: 7.37%
- viability, T/C [17]: 5.67%
- viability, T/C [18]: 5.72%
- viability, T/C (second compound 3.16 µM, first compound 0.000316 µM): 66.7%
- viability, T/C (second compound 3.16 µM, first compound 0.001 µM): 48.9%
- viability, T/C (second compound 3.16 µM, first compound 0.00316 µM): 13.8%
- viability, T/C [33]: 7.85%
- viability, T/C [23]: 6.12%
- viability, T/C [24]: 5.21%
- viability, T/C (second compound 10 µM, first compound 0.000316 µM): 64.2%
- viability, T/C (second compound 10 µM, first compound 0.001 µM): 49.4%
- viability, T/C (second compound 10 µM, first compound 0.00316 µM): 15%
- viability, T/C [34]: 7.11%
- viability, T/C [35]: 5.4%
- viability, T/C [36]: 4.86%

Structure (SMILES): COc1cc2nccc(Oc3ccc(NC(=O)C4(C(=O)Nc5ccc(F)cc5)CC4)cc3)c2cc1OC + COc1cc2nc(C)nc(NC(C)c3cc(N)cc(C(F)(F)F)c3)c2cc1OC1CCOC1
- pIC50 [1]: 6.03
- pIC50 [2]: 6.14
- pIC50 [3]: 6.18
- pIC50 [4]: 6.21
- pIC50 [29]: > 7.50
- viability, T/C [5]: 111%
- viability, T/C [6]: 107%
- viability, T/C [7]: 81.8%
- viability, T/C [8]: 9.71%
- viability, T/C [9]: 21.9%
- viability, T/C [10]: 113%
- viability, T/C [11]: 102%
- viability, T/C [12]: 97.3%
- viability, T/C [13]: 71.2%
- viability, T/C [14]: 8.51%
- viability, T/C [15]: 15.3%
- viability, T/C [16]: 103%
- viability, T/C [17]: 109%
- viability, T/C [18]: 97.7%
- viability, T/C [19]: 65.4%
- viability, T/C [20]: 8.96%
- viability, T/C [21]: 12.7%
- viability, T/C [22]: 102%
- viability, T/C [23]: 98.4%
- viability, T/C [24]: 85.6%
- viability, T/C [25]: 72.6%
- viability, T/C [26]: 6.65%
- viability, T/C [27]: 2.1%
- viability, T/C [28]: 90.6%
- viability, T/C [35]: 44.6%
- viability, T/C [36]: 11.7%
- viability, T/C [37]: 7.86%
- viability, T/C [38]: 0.78%
- viability, T/C [39]: 0.14%
- viability, T/C [40]: 61.9%

Structure (SMILES): CC1COCCN1c1cc(-c2ccnn2C)c2ccnc(-c3ccn[nH]3)c2n1 (stereo not drawn) + C=CC(=O)N1CCN(c2nc(=O)n(-c3c(C)ccnc3C(C)C)c3nc(-c4c(O)cccc4F)c(F)cc23)C(C)C1
- pIC50 [1]: 7.56
- pIC50 [2]: 7.58
- pIC50 [3]: 7.57
- pIC50 [4]: 7.81
- pIC50 [29]: > 8.00
- viability, T/C [30]: 76.3%
- viability, T/C [5]: 46.3%
- viability, T/C [6]: 9.21%
- viability, T/C [7]: 6.2%
- viability, T/C [8]: 4.48%
- viability, T/C [9]: 4.43%
- viability, T/C [31]: 117%
- viability, T/C [11]: 37.7%
- viability, T/C [12]: 8.7%
- viability, T/C [13]: 4.96%
- viability, T/C [14]: 4.36%
- viability, T/C [15]: 4.34%
- viability, T/C [32]: 101%
- viability, T/C [17]: 42%
- viability, T/C [18]: 7.61%
- viability, T/C [19]: 5.66%
- viability, T/C [20]: 4.24%
- viability, T/C [21]: 4.16%
- viability, T/C [33]: 69%
- viability, T/C [23]: 18.1%
- viability, T/C [24]: 6.37%
- viability, T/C [25]: 4.8%
- viability, T/C [26]: 4.05%
- viability, T/C [27]: 4.49%
- viability, T/C [34]: 21.2%
- viability, T/C [35]: 5.73%
- viability, T/C [36]: 4.31%
- viability, T/C [37]: 4.56%
- viability, T/C [38]: 4.61%
- viability, T/C [39]: 4.96%

Structure (SMILES): COc1cc(OC)cc(N(CCNC(C)C)c2ccc3ncc(-c4cnn(C)c4)nc3c2)c1
- viability, T/C (compound 0.0316 µM): 99% [middle of 4 runs]
- viability, T/C (compound 0.1 µM): 102% [middle of 4 runs]
- viability, T/C (compound 1 µM): 98.2% [middle of 4 runs]
- viability, T/C (compound 3.16 µM): 38.9% [middle of 4 runs]
- viability, T/C (compound 10 µM): 0.57% [middle of 4 runs]
- IC50 (curve of compound): 2.53 µM [middle of 4 runs]

Structure (SMILES): CC(=O)OC12COC1CC(O)C1(C)C(=O)C(O)C3=C(C)C(OC(=O)C(O)C(NC(=O)OC(C)(C)C)c4ccccc4)CC(O)(C(OC(=O)c4ccccc4)C21)C3(C)C (stereo not drawn)
- viability, T/C (compound 0.01 µM): 15% [middle of 5 runs]
- viability, T/C (compound 0.0316 µM): 17.7% [middle of 5 runs]
- viability, T/C (compound 0.1 µM): 19.3% [middle of 5 runs]
- viability, T/C (compound 0.316 µM): 22.6% [middle of 5 runs]
- viability, T/C (compound 1 µM): 32.3% [middle of 4 runs]
- viability, T/C (compound 3.16 µM): 25.7% [middle of 5 runs]
- pIC50 (curve of compound): > 8.00

Structure (SMILES): COC(=O)c1ccc2c(C(=Nc3ccc(N(C)C(=O)CN4CCN(C)CC4)cc3)c3ccccc3)c(O)[nH]c2c1 + COc1cc2nc(C)nc(NC(C)c3cc(N)cc(C(F)(F)F)c3)c2cc1OC1CCOC1
- pIC50 [1]: 5.79
- pIC50 [2]: 5.98
- pIC50 [3]: 5.86
- pIC50 [4]: 6.23
- pIC50 [29]: > 7.50
- viability, T/C [5]: 113%
- viability, T/C [6]: 97.2%
- viability, T/C [7]: 76.1%
- viability, T/C [8]: 78.8%
- viability, T/C [9]: 8.68%
- viability, T/C [10]: 15.6%
- viability, T/C [11]: 91.2%
- viability, T/C [12]: 121%
- viability, T/C [13]: 83%
- viability, T/C [14]: 56.8%
- viability, T/C [15]: 7.24%
- viability, T/C [16]: 13.5%
- viability, T/C [17]: 88.9%
- viability, T/C [18]: 103%
- viability, T/C [19]: 90.5%
- viability, T/C [20]: 64.7%
- viability, T/C [21]: 9.57%
- viability, T/C [22]: 11.1%
- viability, T/C [23]: 66.5%
- viability, T/C [24]: 92.8%
- viability, T/C [25]: 78.2%
- viability, T/C [26]: 25.8%
- viability, T/C [27]: 5.92%
- viability, T/C [28]: 0.55%
- viability, T/C [35]: 41.8%
- viability, T/C [36]: 28%
- viability, T/C [37]: 36.7%
- viability, T/C [38]: 11.3%
- viability, T/C [39]: 1.15%
- viability, T/C [40]: 0.2%
